Experimental data taken from ChEMBL document CHEMBL1828558, “Discovery of (+)-N-(3-aminopropyl)-N-[1-(5-benzyl-3-methyl-4-oxo-[1,2]thiazolo[5,4-d]pyrimidin-6-yl)-2-methylpropyl]-4-methylbenzamide (AZD4877), a kinesin spindle protein inhibitor and potential anticancer agent” (J Med Chem, 2011).
≈ marks a conversion by molar mass, not a printed value. Values belong to the compound of their own block, whether it stands above or below them. Calls of active or inactive are those of the source. The calls are words filed in the database; no cut-off is given here.

Columns and labels:
COLO 205 = assay: Anticancer activity against human COLO205 cells after 72 hrs by MTS/PMS assay; format: functional, cell-based
[1] = Aqueous solubility of the compound in 0.1 M phosphate buffer at pH 7.4 after 24 hrs by HPLC-UV method; format: physicochemical
[2] = biological target: T1, Kinesin-like protein KIF11 (Homo sapiens, UniProt P52732); assay: Inhibition of human recombinant C-terminal His6-tagged KSP ATPase activity after 1 hr by malachite green assay
T1 sequence (P52732 whole entry): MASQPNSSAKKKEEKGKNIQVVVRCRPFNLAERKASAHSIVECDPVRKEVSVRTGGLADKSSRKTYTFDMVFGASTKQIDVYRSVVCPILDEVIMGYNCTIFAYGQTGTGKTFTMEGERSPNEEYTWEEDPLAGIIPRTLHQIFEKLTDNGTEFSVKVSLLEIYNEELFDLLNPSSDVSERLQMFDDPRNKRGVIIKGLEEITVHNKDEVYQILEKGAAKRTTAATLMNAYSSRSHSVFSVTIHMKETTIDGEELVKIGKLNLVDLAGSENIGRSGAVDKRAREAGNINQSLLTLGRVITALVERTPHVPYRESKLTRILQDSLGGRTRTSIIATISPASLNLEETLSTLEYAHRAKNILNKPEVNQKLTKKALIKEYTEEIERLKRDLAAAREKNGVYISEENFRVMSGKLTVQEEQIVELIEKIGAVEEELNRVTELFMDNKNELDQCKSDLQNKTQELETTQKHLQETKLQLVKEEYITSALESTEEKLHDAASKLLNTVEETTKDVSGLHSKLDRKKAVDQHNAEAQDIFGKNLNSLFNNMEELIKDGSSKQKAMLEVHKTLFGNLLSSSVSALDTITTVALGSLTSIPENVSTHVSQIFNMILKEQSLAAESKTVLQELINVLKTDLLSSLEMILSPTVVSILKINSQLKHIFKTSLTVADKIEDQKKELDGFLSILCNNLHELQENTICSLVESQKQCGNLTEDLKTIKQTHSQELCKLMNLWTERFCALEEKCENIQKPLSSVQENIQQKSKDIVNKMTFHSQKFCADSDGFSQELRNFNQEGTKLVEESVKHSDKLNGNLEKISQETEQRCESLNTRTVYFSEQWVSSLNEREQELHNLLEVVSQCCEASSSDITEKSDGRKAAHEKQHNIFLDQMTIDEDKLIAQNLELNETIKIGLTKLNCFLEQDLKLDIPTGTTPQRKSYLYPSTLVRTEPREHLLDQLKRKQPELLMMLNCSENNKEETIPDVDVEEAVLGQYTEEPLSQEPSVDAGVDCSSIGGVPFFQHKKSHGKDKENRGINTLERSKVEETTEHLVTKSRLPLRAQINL

Rattus norvegicus [3] = assay: Increase monasters formation in Hans Wistar rat hollow fiber model implanted with human COLO205 cells at 6 mg/kg, iv after 24 hrs; format: functional, organism-based; design: dose 6 mg/kg; settings: COLO 205
Rattus norvegicus [4] = assay: Increase in caspase 3 activation in Hans Wistar rat hollow fiber model implanted with human COLO205 cells at 6 mg/kg, iv after 48 hrs; format: functional, organism-based; design: dose 6 mg/kg; settings: COLO 205
Rattus norvegicus [5] = assay: Increase in caspase 3 activation in Hans Wistar rat hollow fiber model implanted with human COLO205 cells at 12 mg/kg, iv after 48 hrs; format: functional, organism-based; design: dose 12 mg/kg; settings: COLO 205
Rattus norvegicus [6] = assay: Increase of phospho-histone-H3 positive cells in Hans Wistar rat hollow fiber model implanted with human COLO205 cells at 6 mg/kg, iv after 24 hrs; format: functional, organism-based; design: dose 6 mg/kg; settings: COLO 205
Rattus norvegicus [7] = assay: Increase of phospho-histone-H3 positive cells in Hans Wistar rat hollow fiber model implanted with human COLO205 cells at 12 mg/kg, iv after 24 hrs; format: functional, organism-based; design: dose 12 mg/kg; settings: COLO 205
Cavia porcellus [8] = species on record: Cavia porcellus; assay: Binding affinity to sodium channel site 2 in guinea pig atria at 10 uM by radioligand displacement assay
[9] = biological target: T2, Polyunsaturated fatty acid 5-lipoxygenase (Homo sapiens) (UniProt P09917); assay: Inhibition of human 5-lipoxygenase at 10 uM
T2 sequence (whole entry): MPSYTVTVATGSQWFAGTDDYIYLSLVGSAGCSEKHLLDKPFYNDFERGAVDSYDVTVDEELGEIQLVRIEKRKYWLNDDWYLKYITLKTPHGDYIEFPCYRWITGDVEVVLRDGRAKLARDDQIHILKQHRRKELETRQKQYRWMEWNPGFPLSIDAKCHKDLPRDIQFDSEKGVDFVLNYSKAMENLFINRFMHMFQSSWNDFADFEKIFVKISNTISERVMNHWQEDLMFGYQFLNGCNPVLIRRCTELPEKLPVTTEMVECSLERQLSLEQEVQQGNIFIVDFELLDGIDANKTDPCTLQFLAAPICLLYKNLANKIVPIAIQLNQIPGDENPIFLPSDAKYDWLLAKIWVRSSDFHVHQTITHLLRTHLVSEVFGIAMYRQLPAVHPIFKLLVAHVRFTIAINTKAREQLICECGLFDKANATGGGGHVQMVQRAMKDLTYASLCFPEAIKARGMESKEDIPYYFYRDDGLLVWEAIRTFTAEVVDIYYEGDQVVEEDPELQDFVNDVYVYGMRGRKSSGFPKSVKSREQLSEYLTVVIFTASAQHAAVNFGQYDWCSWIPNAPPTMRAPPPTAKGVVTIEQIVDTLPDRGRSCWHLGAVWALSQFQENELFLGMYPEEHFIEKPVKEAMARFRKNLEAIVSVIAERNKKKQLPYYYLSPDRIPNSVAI

[10] = biological target: Tyrosine-protein kinase Lck (Homo sapiens) (UniProt P06239); assay: Inhibition of LCK at 10 uM
Sequence of Tyrosine-protein kinase Lck (Homo sapiens) (P06239 2-509 limits assumed): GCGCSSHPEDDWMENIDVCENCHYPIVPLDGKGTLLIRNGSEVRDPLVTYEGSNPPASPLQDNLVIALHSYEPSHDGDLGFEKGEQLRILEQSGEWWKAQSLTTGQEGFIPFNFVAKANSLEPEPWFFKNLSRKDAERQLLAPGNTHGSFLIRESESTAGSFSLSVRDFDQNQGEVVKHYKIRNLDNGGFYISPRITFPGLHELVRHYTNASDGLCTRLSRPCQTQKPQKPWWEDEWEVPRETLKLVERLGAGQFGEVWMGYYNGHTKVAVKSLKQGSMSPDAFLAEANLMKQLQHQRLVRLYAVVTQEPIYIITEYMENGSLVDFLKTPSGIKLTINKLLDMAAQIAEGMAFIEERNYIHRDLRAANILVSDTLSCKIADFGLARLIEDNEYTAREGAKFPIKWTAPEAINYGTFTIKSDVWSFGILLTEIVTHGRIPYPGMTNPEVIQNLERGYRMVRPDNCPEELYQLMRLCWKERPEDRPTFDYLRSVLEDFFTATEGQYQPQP

Rattus norvegicus [11] = assay: Increase monasters formation in Hans Wistar rat hollow fiber model implanted with human COLO205 cells at 12 mg/kg, iv after 24 hrs; format: functional, organism-based; design: dose 12 mg/kg; settings: COLO 205
[12] = biological target: Somatostatin receptor type 1 (Homo sapiens) (UniProt P30872); assay: Binding affinity to human SST1 receptor at 10 uM by radioligand displacement assay
Sequence of Somatostatin receptor type 1 (Homo sapiens) (P30872 whole entry): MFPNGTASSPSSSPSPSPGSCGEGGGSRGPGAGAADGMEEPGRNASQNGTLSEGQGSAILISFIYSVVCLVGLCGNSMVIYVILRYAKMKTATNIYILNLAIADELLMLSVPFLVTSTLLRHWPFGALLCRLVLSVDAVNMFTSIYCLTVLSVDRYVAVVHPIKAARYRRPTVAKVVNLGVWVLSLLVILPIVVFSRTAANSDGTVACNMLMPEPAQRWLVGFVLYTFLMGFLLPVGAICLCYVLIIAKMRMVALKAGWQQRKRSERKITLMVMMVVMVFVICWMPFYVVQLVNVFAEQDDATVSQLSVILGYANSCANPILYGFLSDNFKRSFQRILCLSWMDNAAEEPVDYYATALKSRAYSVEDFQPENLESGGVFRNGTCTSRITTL

[13] = biological target: Ribosomal protein S6 kinase alpha-1 (Homo sapiens) (UniProt Q15418); assay: Inhibition of MAPKAP-K1a at 10 uM
Sequence of Ribosomal protein S6 kinase alpha-1 (Homo sapiens) (Q15418 whole entry): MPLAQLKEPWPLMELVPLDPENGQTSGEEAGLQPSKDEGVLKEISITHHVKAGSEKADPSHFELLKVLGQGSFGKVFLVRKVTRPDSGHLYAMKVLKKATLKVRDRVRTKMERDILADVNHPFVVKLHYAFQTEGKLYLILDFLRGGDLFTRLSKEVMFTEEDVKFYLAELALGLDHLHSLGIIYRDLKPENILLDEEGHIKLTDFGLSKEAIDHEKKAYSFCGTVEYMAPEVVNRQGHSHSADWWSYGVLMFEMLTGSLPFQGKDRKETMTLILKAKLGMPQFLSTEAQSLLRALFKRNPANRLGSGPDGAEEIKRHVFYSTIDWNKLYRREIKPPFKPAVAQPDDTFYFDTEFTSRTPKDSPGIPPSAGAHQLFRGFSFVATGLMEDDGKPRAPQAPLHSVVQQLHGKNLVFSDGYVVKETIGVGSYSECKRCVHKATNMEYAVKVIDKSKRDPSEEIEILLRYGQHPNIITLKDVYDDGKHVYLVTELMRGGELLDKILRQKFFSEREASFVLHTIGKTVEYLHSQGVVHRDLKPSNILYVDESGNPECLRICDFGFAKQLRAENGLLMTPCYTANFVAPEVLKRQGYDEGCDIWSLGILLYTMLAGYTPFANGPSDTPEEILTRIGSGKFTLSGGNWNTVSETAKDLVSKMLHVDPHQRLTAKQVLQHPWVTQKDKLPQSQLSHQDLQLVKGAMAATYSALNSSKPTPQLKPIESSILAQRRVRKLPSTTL

Rattus norvegicus [14] = assay: Increase monasters formation in Hans Wistar rat hollow fiber model implanted with human COLO205 cells at 12 mg/kg, iv after 48 hrs; format: functional, organism-based; design: dose 12 mg/kg; settings: COLO 205
Cavia porcellus [15] = species on record: Cavia porcellus; assay: Binding affinity to L-type calcium channel phenylalkylamine binding site in guinea pig ileum at 10 uM by radioligand displacement assay; format: tissue-based
Cavia porcellus [16] = species on record: Cavia porcellus; assay: Binding affinity to L-type calcium channel benzothiazepine binding site in guinea pig ileum at 10 uM by radioligand displacement assay; format: tissue-based
Rattus norvegicus [17] = assay: Increase monasters formation in Hans Wistar rat hollow fiber model implanted with human COLO205 cells at 6 mg/kg, iv after 48 hrs; format: functional, organism-based; design: dose 6 mg/kg; settings: COLO 205
[18] = Clearance in nude mouse; format: ADME, organism-based; settings: in vivo

SMILES: Cc1ccc(C(=O)N(CCCN)C(c2nc3snc(C)c3c(=O)n2Cc2ccccc2)C(C)C)cc1 (single isomer, unassigned; (+))
Activity (Rattus norvegicus [3]): Active | Activity (Rattus norvegicus [4]): Active | Activity (Rattus norvegicus [5]): Active | Activity (Rattus norvegicus [6]): Active | Activity (Rattus norvegicus [7]): Active | inhibition (Cavia porcellus [8]): 99% | inhibition [9]: 71% | inhibition [10]: 42% | Activity (Rattus norvegicus [11]): Active | inhibition [12]: 80% | inhibition [13]: 35% | Activity (Rattus norvegicus [14]): Active | inhibition (Cavia porcellus [15]): 76% | inhibition (Cavia porcellus [16]): 87% | Activity (Rattus norvegicus [17]): Active

SMILES: CCC(c1nc2sc(Cl)c(Br)c2c(=O)n1Cc1ccccc1)N(CCCN)C(=O)c1ccc(C)cc1 (centres undefined)
IC50 (COLO 205; Homo sapiens, COLO 205, 72 h): 675 nM | IC50 [2]: 161 nM

SMILES: CCC(c1nc2ccsc2c(=O)n1Cc1ccccc1)N(CCCN)C(=O)c1ccc(OC)cc1 (centres undefined)
IC50 (COLO 205; Homo sapiens, COLO 205, 72 h): 640 nM | IC50 [2]: 210 nM

SMILES: CCC(c1nc2ccsc2c(=O)n1Cc1ccc(OC)cc1)N(CCCN)C(=O)c1ccc(C)cc1 (centres undefined)
IC50 (COLO 205; Homo sapiens, COLO 205, 72 h): 790 nM | IC50 [2]: 160 nM

SMILES: CCC(c1nc2ccsc2c(=O)n1Cc1ccccc1)N(CCCCN)C(=O)c1ccc(C)cc1 (centres undefined)
IC50 (COLO 205; Homo sapiens, COLO 205, 72 h): 980 nM | IC50 [2]: 390 nM

SMILES: CCC(c1nc2ccsc2c(=O)n1Cc1cc(C)on1)N(CCCN)C(=O)c1ccc(C)cc1 (centres undefined)
IC50 (COLO 205; Homo sapiens, COLO 205, 72 h): 1710 nM | IC50 [2]: 630 nM

Other lines, results leading:

IC50 (COLO 205; colo 205): 4 nM | solubility at 24 h [1]: 1570 µM (≈ 770 µg/mL) | IC50 [2]: 3 nM
SMILES: CCC(c1nc2snc(C)c2c(=O)n1Cc1ccccc1)N(CCCN)C(=O)c1ccc(C)cc1 (stereo in doubt; 62)

IC50 (COLO 205; Homo sapiens, COLO 205, 72 h): 23 nM | solubility at 24 h [1]: 69 µM (≈ 32.7 µg/mL) | IC50 [2]: 16 nM
SMILES: CCC(c1nc2onc(C)c2c(=O)n1Cc1ccccc1)N(CCCN)C(=O)c1ccc(C)cc1 (centres undefined)

clearance [18]: 50 mL/min/kg | IC50 (COLO 205; Homo sapiens, COLO 205, 72 h): 3 nM | IC50 [2]: 1 nM
SMILES: CCC(c1nc2snc(C)c2c(=O)n1Cc1ccccc1)N(CCCN)C(=O)c1ccc(C)cc1 (stereo in doubt; 68)

IC50 (COLO 205; colo 205): 30 nM | solubility at 24 h [1]: 1240 µM (≈ 588 µg/mL) | IC50 [2]: 8 nM
SMILES: CCC(c1nc2sccc2c(=O)n1Cc1ccccc1)N(CCCN)C(=O)c1ccc(C)cc1 (stereo in doubt; 56)

IC50 (COLO 205; Homo sapiens, COLO 205, 72 h): 140 nM | IC50 [2]: 90 nM
SMILES: CCC(c1nc2ccsc2c(=O)n1Cc1ccccc1)N(CCCN)C(=O)c1cccc(C)c1 (centres undefined)
